Some test systems named below: CAKI-1; A549; SF-268; MOLT-4; RXF 393; HCT-116; M14; RPMI-8226; OVCAR-4; SK-MEL-5; SW-620; NCI-H23; OVCAR-3; U-251; UACC-62; HOP-92; SF-539; NCI-H226; HCC 2998; A498.
What all share (test): DTP human tumour cell line panel, 48 h

Several values for one entry are separate records, joined by “and”; a condition that tells them apart may be missing. Identical values can stand only once.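 A five-concentration, 48-hour dose response in 96-well plates underlies each endpoint, interpolated linearly between surrounding concentrations. GI50: concentration for 50% inhibition of growth.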 Activity calls are given as the source filed them. Cut-off read from the data, not from the text of the source: active = GI50 up to about 1.1 µM and inactive = higher.

With `CC(C)[C@H]1CO[C@@H]2O[C@H](C)CC(=O)N21`, the GI50 in the test on CAKI-1, with A549, in the test on SF-268, in the test on MOLT-4, in the test with RXF 393 and in the test on HCT-116 was > 100 µM (inactive) in each case. Also, the GI50 in the test on M14, in the test on RPMI-8226, with OVCAR-4, with SK-MEL-5, in the test on SW-620 and in the test with NCI-H23 was > 100 µM (inactive) throughout. Further, the GI50 with OVCAR-3, in the test on U-251, in the test on UACC-62, with HOP-92, with SF-539 and with NCI-H226 was > 100 µM (inactive) each time.
For `CC1OC1C(=O)P(=O)(O)O` (stereo unspecified), the GI50 in the test on CAKI-1, in the test on A549, with SF-268, in the test with MOLT-4, with HCT-116 and with HCC 2998 was > 100 µM (inactive) in each case. In addition, the GI50 with M14, with RPMI-8226, in the test on OVCAR-4, with SK-MEL-5, with A498 and in the test with SW-620 was > 100 µM (inactive) throughout. In addition, the GI50 with NCI-H23, in the test with OVCAR-3, in the test on U-251, with UACC-62, in the test with HOP-92 and in the test with SF-539 was > 100 µM (inactive) throughout. Further, the GI50 in the test with NCI-H226 was > 100 µM (inactive).
As for `CCCCCCC1NN(C(C)=O)C(CCCCCC)NN1C(C)=O` (stereo unspecified), the GI50 in the test with CAKI-1 was > 100 µM (inactive); in the test on MOLT-4, > 100 µM (inactive); in the test on HCT-116 it was > 100 µM (inactive); with HCC 2998 it was > 100 µM (inactive); in the test with M14, > 100 µM (inactive); in the test with RPMI-8226, 24 µM (inactive). The GI50 was > 100 µM (inactive) in the test on OVCAR-4; > 100 µM (inactive) in the test with SK-MEL-5; 20.4 µM (inactive) with SW-620; > 100 µM (inactive) in the test on NCI-H23; > 100 µM (inactive) with OVCAR-3; > 100 µM (inactive) with U-251. The GI50 with UACC-62, in the test on HOP-92, in the test on SF-539 and with NCI-H226 was > 100 µM (inactive) each time.
On to `CO/C(=N\N=Cc1ccccc1)c1ccncc1`, for which the GI50 in the test on CAKI-1, with A549, with SF-268, in the test with MOLT-4, with HCT-116 and with HCC 2998 was > 100 µM (inactive) throughout. In addition, the GI50 in the test with M14, in the test with RPMI-8226, with OVCAR-4, in the test on SK-MEL-5, with A498 and in the test on SW-620 was > 100 µM (inactive) in each case. In addition, the GI50 in the test with NCI-H23, in the test with OVCAR-3, in the test with U-251, with UACC-62, with HOP-92 and in the test on SF-539 was > 100 µM (inactive) throughout. In addition, in the test on NCI-H226, the GI50 is 12.6 µM (inactive).
Consider `Clc1ccc(OC2CCO2)cc1Cl` (stereo unspecified), for which the GI50 with CAKI-1 is 53.1 µM (inactive); in the test on A549, > 100 µM (inactive); in the test on SF-268, 78.2 µM (inactive); in the test on MOLT-4, 35.3 µM (inactive); with HCT-116, 33.8 µM (inactive); in the test on HCC 2998 it was > 100 µM (inactive). In addition, the GI50 was > 100 µM (inactive) in the test with M14; 43.5 µM (inactive) in the test on RPMI-8226; 60 µM (inactive) in the test on OVCAR-4; 62.1 µM (inactive) with SK-MEL-5; 38 µM (inactive) with A498; 17.9 µM (inactive) in the test on SW-620. Moreover, the GI50 with NCI-H23 was 83.8 µM (inactive); in the test with OVCAR-3 it was 57.8 µM (inactive); in the test with U-251 it was 88.3 µM (inactive); in the test on UACC-62, 72.6 µM (inactive); in the test with HOP-92 it was 46.3 µM (inactive); in the test on SF-539, > 100 µM (inactive). The GI50 in the test with NCI-H226 was 52.8 µM (inactive).
With `O=C1OC(c2ccccc2)=N/C1=C\c1ccccc1`, the GI50 is > 100 µM (inactive) in the test on CAKI-1; > 100 µM (inactive) with A549; 28.2 µM (inactive) and 47 µM (inactive) with MOLT-4; > 100 µM (inactive) in the test on HCT-116; > 100 µM (inactive) and 67.9 µM (inactive) in the test on HCC 2998; 26.9 µM (inactive) and 30.4 µM (inactive) in the test with M14. The GI50 in the test with RPMI-8226 was 30.5 µM (inactive) and 22.5 µM (inactive); in the test with OVCAR-4, 86.5 µM (inactive) and 49.7 µM (inactive); with SK-MEL-5, 38.1 µM (inactive) and 29.4 µM (inactive); in the test with A498, > 100 µM (inactive); in the test with NCI-H23, > 100 µM (inactive); in the test with OVCAR-3, 24 µM (inactive). Besides, the GI50 in the test with U-251 is 32.1 µM (inactive) and 35.1 µM (inactive); with UACC-62, > 100 µM (inactive); with HOP-92, > 100 µM (inactive); with SF-539, 19 µM (inactive) and 21.1 µM (inactive); with NCI-H226 it was 24 µM (inactive) and 36.6 µM (inactive).
For the compound `c1ccc(/N=C(\N2CCCCC2)N(CCN2CCCCC2)c2ccccc2)cc1`, the GI50 was 3.15 µM (inactive) in the test with CAKI-1; 2.11 µM (inactive) in the test with A549; 0.279 µM (active) with MOLT-4; 0.0736 µM (active) in the test on HCT-116; 1.69 µM (inactive) in the test on HCC 2998; 1.5 µM (inactive) with M14. Besides, the GI50 in the test with RPMI-8226 is 0.192 µM (active); in the test with OVCAR-4, 1.2 µM (inactive); in the test with SK-MEL-5, 1.36 µM (inactive); in the test on SW-620, 1.8 µM (inactive); with NCI-H23, 0.773 µM (active); in the test with OVCAR-3, 0.401 µM (active). The GI50 in the test on U-251 is 1.39 µM (inactive); with HOP-92, 1.44 µM (inactive); in the test on NCI-H226 it was 2.62 µM (inactive).
As to `CN(CC(=O)O)c1ncc2c(n1)-c1ccccc1OC2c1ccccc1` (stereo unspecified), the GI50 in the test on CAKI-1 was > 100 µM (inactive); in the test with A549, 76.4 µM (inactive); with SF-268, > 100 µM (inactive); in the test on MOLT-4 it was 29.2 µM (inactive); in the test on RXF 393, 56.1 µM (inactive); in the test on M14, > 100 µM (inactive). The GI50 in the test on RPMI-8226 was 38.1 µM (inactive); with OVCAR-4, > 100 µM (inactive); with SK-MEL-5, > 100 µM (inactive); in the test on SW-620 it was > 100 µM (inactive); in the test on NCI-H23, 51.6 µM (inactive); in the test on OVCAR-3, > 100 µM (inactive). Moreover, the GI50 is > 100 µM (inactive) with U-251; 92.5 µM (inactive) with UACC-62; > 100 µM (inactive) with HOP-92; > 100 µM (inactive) in the test on SF-539; 86.7 µM (inactive) in the test on NCI-H226.
As to `O=c1[nH]cnc2c(COCCCO)c[nH]c12`, the GI50 in the test on CAKI-1, in the test on A549, in the test with SF-268, in the test with MOLT-4, with RXF 393 and in the test on HCT-116 was > 100 µM (inactive) throughout. Also, the GI50 in the test on M14, in the test with RPMI-8226, in the test with SK-MEL-5, with SW-620, with NCI-H23 and in the test on OVCAR-3 was > 100 µM (inactive) in each case. In addition, the GI50 in the test with U-251, in the test on UACC-62 and with HOP-92 was > 100 µM (inactive) throughout.
On to `CC(C)N(C(=O)C1(O)c2ccccc2C=Cc2ccccc21)C(C)C`, for which the GI50 in the test with CAKI-1 is 24.7 µM (inactive); in the test with A549 it was 19.9 µM (inactive); with SF-268 it was 21.5 µM (inactive); with MOLT-4, 23.7 µM (inactive); with HCT-116 it was 17.5 µM (inactive); in the test on M14, 19 µM (inactive). The GI50 is 35.9 µM (inactive) with RPMI-8226; 22.5 µM (inactive) with OVCAR-4; 16.3 µM (inactive) in the test with SK-MEL-5; 16.3 µM (inactive) with A498; 17.3 µM (inactive) in the test on SW-620; 17.6 µM (inactive) in the test on NCI-H23. For the same compound, the GI50 is 16.9 µM (inactive) with OVCAR-3; 16.8 µM (inactive) with U-251; 15.4 µM (inactive) in the test with UACC-62; 18.7 µM (inactive) in the test with SF-539; 19.3 µM (inactive) in the test with NCI-H226.
On to `CN(C)CC(CO)(CN(C)C)CN(C)C`, for which the GI50 in the test with CAKI-1, in the test with A549, with SF-268, in the test with MOLT-4, in the test with RXF 393 and with HCT-116 was > 100 µM (inactive) throughout. The GI50 in the test with M14, in the test on RPMI-8226, in the test with OVCAR-4, with SK-MEL-5, with SW-620 and in the test with NCI-H23 was > 100 µM (inactive) in each case. In addition, the GI50 with OVCAR-3, in the test on U-251, in the test with UACC-62, in the test with HOP-92, in the test with SF-539 and in the test with NCI-H226 was > 100 µM (inactive) in each case.
Consider `COc1ccc2c(c1)-c1oc3ccccc3c(=O)c1CO2`, for which the GI50 in the test with CAKI-1 was 20.8 µM (inactive); in the test on A549 it was 43 µM (inactive); in the test with SF-268, 25 µM (inactive); in the test on MOLT-4, 28.1 µM (inactive); with HCT-116, 28.8 µM (inactive); with HCC 2998, 46.5 µM (inactive). Besides, the GI50 in the test with M14 was 57.7 µM (inactive); in the test on RPMI-8226, 20.8 µM (inactive); in the test on SK-MEL-5, 17.4 µM (inactive); in the test on SW-620, 28.2 µM (inactive); in the test on NCI-H23, 89.5 µM (inactive); in the test on OVCAR-3 it was 31.3 µM (inactive). Besides, the GI50 with U-251 is 28.7 µM (inactive); in the test on UACC-62 it was 38.1 µM (inactive); in the test on SF-539 it was 35.5 µM (inactive); with NCI-H226 it was 50.4 µM (inactive).

As usually defined, the GI50 is the concentration giving 50% growth inhibition.

The record behind these values is ChEMBL document CHEMBL1201862, “PubChem BioAssay data set” (2004).
